{
  "source": "patent US20110151089A1",
  "about": "“COMPOSITION CONTAINING MAGNESIUM GLUTAMATE WHICH CAN ENHANCE THE SALTINESS OF FOODS AND DRINKS” (priority 2008, published 2011)",
  "assay": "Sensory evaluation test of miso sample solutions without broth, experts' panel of six adult persons (Example 2)",
  "set-up": "species or system human",
  "conditions": "converted sodium chloride concentration about 0.625%, scale with 7 gradations, from 0 to 7",
  "excerpt": "A scale with 7 gradations, from 0 to 7, was used to evaluate the “strength of saltiness” and “overall strength of miso soup flavor”.",
  "data": [
    {"smiles": "N[C@@H](CCC(=O)[O-])C(=O)[O-].[Mg+2]", "note": "[MDG, magnesium glutamate]", "values": [
      {"measurement": "Strength of saltiness", "result": "improved"}
    ]}
  ]
}
